# According to patent US20250235447A1, “METHODS FOR TREATING CARDIOVASCULAR CONDITIONS AND METHODS OF INCREASING THE EFFICIENCY OF CARDIAC METABOLISM” (IMBRIA PHARMACEUTICALS, INC., priority 2021, published 2025):
# Legend:
# [1] = FIH study, SAD part: plasma pharmacokinetics after single oral dose; details: all blood samples of subjects that received IMB-1018972
# Description: (§2) Each subject participated in only 1 group during the study.
# (§3) The blood samples were taken via an indwelling intravenous catheter or by direct venipuncture. The exact times of blood sampling were recorded in the eCRF.
# [2] = 28-day dog toxicity study (NOAEL and exposure); assay type: in vivo; details: from HED
# Description: Based on the nonclinical toxicology data, it was considered that subjects in this clinical study were not at unreasonable risk of adverse effects. […] For a 60-kg individual, the NOAEL dose would be 6480 mg. With a 10-fold safety factor applied, this would allow for a maximum recommended starting dose (MRSD) of 648 mg/day.7,8 The planned starting dose in the current Phase 1 study was 50 mg, equivalent to 0.83 mg/kg/day for a 60-kg subject. This starting dose is less than 10% of the MRSD determined from the dog NOAEL and less than 1% of the dog NOAEL.
# The relevant animal study was the 28-day dog study where the NOAEL for IMB-1018972 was 200 mg/kg/day.
# [3] = Pharmacodynamic study in obese patients with Type 2 diabetes: preliminary safety data; assay type: in vivo, human
# Description: (§1) This was a randomized study consisting of a population of 20 patients with Type 2 diabetes and a BMI≥30 kg/m^2. The first five patients were treated for four weeks; the subsequent 15 patients (patients 6-20) were treated for eight weeks (with five additional patients prn). Ten patients had hyperpolarized ^13C-pyruvate MRS.
# The preliminary baseline characteristics of randomized participants is detailed in FIG. 52. The preliminary baseline characteristics of completers is detailed in FIG. 53. FIG. 54 details adverse events as of the data cut-off date of September 20. Nineteen patients were on the drug from approximately one to eight weeks. There were no SAEs. Seven subjects reported nine adverse events. Two subjects had three drug-related AEs. All AEs were mild or moderate in severity. […] Overall, the compound was well-tolerated.
# [4] = test system: myocardial energetics and metabolism; test: Pharmacodynamic study in obese patients with Type 2 diabetes (PCr/ATP, myocardial triglyceride, body weight); assay type: in vivo, human
# Description: Results of a pharmacodynamic study to evaluate the impact of 200 mg BID of a composition of a compound with formula (X) on rest myocardial energetics (PCr/ATP) in obese individuals with type 2 diabetes are detailed in FIGS. 52-65. The key endpoints of the study were to evaluate the metabolic response, specifically the impact on PDH flux using hyperpolarized ^13C-pyruvate MRS, as a measure of the compound's ability to promote glucose oxidation and recouple glucose oxidation with glycolysis. Also assessed was the effect on cardiac systolic and diastolic function, measured by cardiac magnetic resonance (CMR) and transthoracic echocardiography (TTE), and the effect on cardiac steatosis using ^1H-MRS.
# The primary objective is to evaluate the impact of 200 mg of formula (X) on rest and stress myocardial energetics (PCr/ATP). Other objectives include: to evaluate the metabolic response, specifically the impact on PDH flux using hyperpolarized ^13C-pyruvate MRS, as a measure of the compound's ability to promote glucose oxidation; to assess the effect on cardiac systolic and diastolic function, as measured by cardiac magnetic resonance (CMR) and transthoracic echocardiography (TTE); to measure the impact on myocardial steatosis.
# as §1
# [5] = FIH study: safety and tolerability (adverse events, laboratory, vital signs, ECG)
# Description: AEs were recorded from (first) admission until completion of the follow-up visit. Any clinically significant observations in results of clinical laboratory, 12-lead ECGs, vital signs, or physical examinations were recorded as AEs.
# A treatment-emergent AE (TEAE) was defined as any event not present prior to (the first) administration of the study drug or any event already present that worsened in either severity or frequency following exposure to the study drug.
# The severity of the AEs was rated as mild, moderate, or severe; the relationship between the AEs and the study drug was indicated as none, unlikely, possibly, likely, or definitely. Adverse events assessed as possibly, likely, or definitely were considered related to the study drug; AEs assessed as none or unlikely were considered not related to the study drug.
# The ECG was recorded using an ECG machine equipped with computer-based interval measurements (with no/minimal disturbance by procedures). The following ECG parameters were recorded: heart rate, PR-interval, QRS-duration, QT-interval, QTcF-interval, and the interpretation of the ECG profile by the Investigator.
# [6] = human, in vivo
# Description: as §2, §3
# [7] = human, in vivo; remark: listed apart in the source
# Description: Subjects received multiple oral doses of an IR formulation of IMB-1018972 or placebo once every 12 hours (q12 h) for 14 consecutive days. Each subject participated in only 1 group during the study.
# The doses were selected based upon the safety, tolerability, and PK data from the SAD part: • Group B1 multiple oral doses of an IR formulation of 150 mg IMB-1018972 (n=9) or matching placebo (n=3) twice daily (q12 h) for 14 days; on Day 14 only a single morning dose was administered • Group B2: multiple oral doses of an IR formulation of 50 mg IMB-1018972 (n=9) or matching placebo (n=3) q12 h for 14 days; on Day 14 only a single morning dose was administered
# Before each morning dose, subjects fasted overnight for at least 10 hours following a snack on the evening before. On Days 1 and 14, subjects received a standardized breakfast that had to be consumed within 20 minutes. Dosing occurred at 30 minutes after the start of breakfast. Following dosing, subjects fasted for 4 hours until lunch. During fasting, fluids other than water were not allowed. On Days 2 to 13, breakfast was not standardized and was given within maximally 1 hour before dosing and consumed before dosing. No fasting after dosing was applicable on these days.
# clinical = details: human, in vivo, 50 mg
# Description: as §2, §3
# [8] = 200 mg, combined 4- and 8-week cohorts, interim data
smiles,measurement,setting,value
COc1ccc(CN2CCN(CCOC(=O)c3cccnc3)CC2)c(OC)c1OC [IMB-1018972],IMB-1018972 (parent) in plasma samples,[1],could be measured in only few plasma samples
same,NOAEL dose for a 60-kg individual,[2],6480 mg
same,Flushing,[3]; nineteen patients on drug,no flushing reported
same,Number of adverse events,[3]; nineteen patients on drug,nine
same,Number of drug-related AEs,[3]; nineteen patients on drug,three
same,Subjects reporting adverse events,[3]; nineteen patients on drug,Seven
same,Subjects with drug-related AEs,[3]; nineteen patients on drug,Two
same,SAEs,[3]; nineteen patients on drug about one to eight weeks,no SAEs
same,Tolerability,[3]; overall,well-tolerated
same,Cardiac energetics (PCr/ATP),[4]; [8],significant and meaningful increase
same,Myocardial steatosis (myocardial triglycerides),[4]; [8],highly significant reduction
same,Mean fasting glucose,"[4]; short-term administration, cohorts of the study",significant reduction
same,Body weight,"[4]; short-term administration, combined 4- and 8-week cohorts",significant weight loss
same,Effect of fed dosing on number and incidence of TEAEs,[5]; FE arm of SAD part,appeared to attenuate the number and incidence of TEAEs
same,"Subjects with TEAEs of flushing, SOC vascular disorders",[5]; MAD part,33.3%
same,"Subjects with TEAEs, SOC general disorders and administration site conditions",[5]; MAD part,27.8%
same,"Subjects with TEAEs, SOC musculoskeletal and connective tissue disorders",[5]; MAD part,27.8%
same,Number of TEAEs of flushing (mild),"[5]; MAD part, 150 mg q12 h",7
same,Subjects with TEAEs considered related to the study drug,"[5]; MAD part, 6 of 18",33.3%
same,Subjects with TEAEs considered not related to the study drug,"[5]; MAD part, 11 of 18",61.1%
same,"Subjects with TEAEs, SOC gastrointestinal disorders",[5]; SAD part,16.7%
same,"Subjects with TEAEs, SOC general disorders and administration site conditions",[5]; SAD part,20.8%
same,"Subjects with TEAEs, SOC nervous system disorders",[5]; SAD part,29.2%
same,"Subjects with TEAEs, SOC skin and subcutaneous tissue disorders",[5]; SAD part,16.7%
same,"Subjects with TEAEs, SOC vascular disorders",[5]; SAD part,29.2%
same,Subjects with drug-related TEAEs of flushing (vascular disorders),[5]; SAD part,25%
same,"Subjects with drug-related TEAEs, nervous system disorders",[5]; SAD part,16.7%
same,Subjects with TEAEs considered related to the study drug,"[5]; SAD part, 7 of 24",29.2%
same,Subjects reporting flushing,"[5]; single 150 mg IMB-1018972, fasted, FE arm",2
same,Subjects reporting flushing,"[5]; single 400 mg IMB-1018972, fasted",Four
COc1ccc(CN2CCNCC2)c(OC)c1OC [trimetazidine],Time at which detectable concentrations generally appeared,[6],15 to 30 min
same,"Geometric mean Cmax lower, MAD Day 1 150 mg fed vs SAD single 150 mg fed",[7],32%
same,Tmax,clinical,8 h
